This is an account of results in US11007250B2, “Methods and kits for treating pain” (Duke University, priority 2017, dated 2021).

Experiment [1] relates to DRG neurons and sciatic nerve fibers. Put plainly: Nivolumab binding in mouse DRG and sciatic nerve sections. The procedure:
FIG. 10 (Supp. FIG. 2). […] Human IgG included as a control. *P<0.05, vs. human IgG/PD-L1, repeated measures Two-Way ANOVA, n=4 mice/group. Arrows indicate drug injections. Human IgG or monoclonal antibody injected 30 min prior to injection of PD-L1. BL, baseline. […] Arrows indicate nerve fibers. Data are mean s.e.m.
Immunohistochemistry in mouse and human tissues and quantification. After appropriate survival times, mice were deeply anesthetized with isoflurane and perfused through the ascending aorta with PBS, followed by 4% paraformaldehyde. After the perfusion, the L4-L5 spinal cord segments, L4-L5 DRGs, sciatic nerves, and melanoma tissues were removed and postfixed in the same fixative overnight. Fresh human DRGs (L4-L5) of 4 non-diseased donors from NDRI (National Disease Research Interchange) (Xu, Z Z, et al. 2015) and the attached spinal nerves were immediately fixed upon delivery in fresh 4% paraformaldehyde overnight. Spinal cord, DRG, and nerve tissue sections (10 or 14 μm) and free-floating spinal cord and skin sections (30 μm) were cut in a cryostat. […] The stained sections were examined with a Nikon fluorescence microscope, and images were captured with a CCD Spot camera. […]

The test system of experiment [2] is lamina 110 neurons in spinal cord slices. Put plainly: Patch clamp recordings of sEPSCs in spinal cord slices. It counts as cell-based, mouse. The following applies: Nivolumab 300 ng/ml.
The test system of experiment [3] is spinal wide dynamic range (WDR) neurons. Put plainly: Extracellular recording of spinal WDR neurons in bone cancer rats in vivo. More on the design: species or system rat. As to conditions: PD-L1 20 μg i.t., day 14; Nivolumab 10 μg i.t., day 8. The procedure: Rat bone cancer pain model. Tumor cells were extracted from the ascetic fluid of rats that received Walker 256 rat mammary gland carcinoma cells, and suspension of 1×10^8/ml tumor cells in PBS was prepared. The inoculation was performed as previously described (Yang, Y, et al. J. Neurosci., 2015, 35:7950-7963). Briefly, rats were anesthetized with sodium pentobarbital (50 mg/kg, intraperitoneal). The right leg was shaved, and the skin was disinfected with iodine tincture and 75% ethanol. A 22-gauge needle was inserted at the site of the intercondylar eminence of the right tibia and was then replaced with a 10 μl microinjection syringe containing a 4 μl suspension of tumor cells (4×10^5). The contents of the syringe were slowly injected into the tibia cavity. To prevent leakage of cells outside the bone, the injection site was sealed with bone wax. […]
Extracellular recording in rat spinal cord in vivo. […] The electrocardiogram was monitored, and the heart rate was maintained at 250-300/min. […] WDR neurons responding to innocuous stimulation and to a greater degree, noxious stimulation of the RF were analyzed in the present study. The recorded signals were amplified with a microelectrode amplifier (1800 A-M System, USA) and fed to computer via a CED 1401 interface for off-line analysis using the Spike 2 software (Cambridge Electronic Design, Cambridge, UK). […]

The next experiment concerns melanoma-bearing mice. Put plainly: Mouse melanoma model: spontaneous pain, von Frey test, CPP. It counts as in vivo. As to conditions: MCI-4w.
The mark [4] stands for this setting: PD-L1 30 ng/ml, sPD-1 30 ng/ml perfusion, 3 h.

Consider “Nivolumab: FDA-approved fully humanized IgG4 monoclonal anti-PD-1 antibody, Bristol-Myers Squibb”, for which the “binding in Pd1 knockout mice” value in experiment [1] (Pd1−/− mice) was “absent”. Moreover, the “binding in wild-type (WT) mouse tissue” value in experiment [1] (WT mice) was “binding on DRG neurons and sciatic nerve fibers”. The “effect on PD-L1's inhibition of sEPSC frequency” value in experiment [2] (3 h incubation) is reported as “blocked”. In experiment [2] (setting [4]), the “amplitude of spontaneous EPSCs (sEPSCs)” value is recorded as “not amplitude” and the “frequency of spontaneous EPSCs (sEPSCs)” value is listed as “increased sEPSC frequency”. In experiment [3], the “activity of WDR neurons in bone cancer rats” value is recorded as “enhanced activities of WDR neurons”. The “mechanical allodynia in melanoma-bearing mice” value in the experiment on melanoma-bearing mice (sPD-1 5 μg i.pl., siRNA 2 μg peri-sciatic, Nivolumab 3-10 mg/kg i.v., RMP1-14 10 mg/kg i.v.) is “rapid, persistent, and dose-dependent mechanical allodynia”. Also, the “spontaneous pain (licking/flinching) in melanoma-bearing mice” value in the experiment with melanoma-bearing mice (sPD-1 5 μg i.pl., siRNA 2 μg peri-sciatic, Nivolumab 3-10 mg/kg i.v., RMP1-14 10 mg/kg i.v., SSG 5 μg i.pl.) is reported as “marked spontaneous pain”. Further, in the experiment with melanoma-bearing mice (intrathecal or intraplantar route), the “mechanical allodynia in melanoma-bearing mice after local injection” value was “evoked mechanical allodynia”.
